Laboratory results published in US5028613A, “Novel pyrroloquinoline alkaloids and methods of use” (Repligen Corporation, priority 1990, dated 1991).
Converted amounts (≈) assume the structure as drawn. Read-outs that look alike come from different tables or passages of the source.

Experiments:
B. subtilis = B. subtilis growth inhibition (disc diffusion assay); format: cell-based, Bacillus subtilis (ATCC strain 6633); conditions: result in words
Experimental: All media were autoclaved at 121° C. for 15 minutes. Candida albicans: C. albicans (ATCC strain 44506) was grown on Sabouraud dextrose agar to produce single colonies, one of which was used to inoculate Sabouraud dextrose broth. The broth was incubated at 37° C. with shaking at 200 rpm for 18 hours. The resultant culture was brought to 10% (v/v) glycerol, frozen at -80° C., and used as the inoculum for the anti-Candida assay. Aspergillus nidulans: A. nidulans (ATCC strain 36321) was grown from a spore stock on the surface of a YAG plate (YAG: yeast extract 0.5%; glucose 2%; agar 2%) at 30° C. until the colony sporulated; at this point the colony was green (usually within one week). Spores were harvested by washing with 0.1% (v/v) TRITON™ X-100. Spores were then washed with distilled water before freezing at -80° C. in the presence of 10% (v/v) glycerol. Bacillus subtilis: Standard spore stocks (ATCC strain 6633) were purchased from Difco (#0453-36-0). Escherichia coli: The BMR strain was used. […]
Paper discs (6.35 mm) were impregnated with the test substance and allowed to dry. […] Plates were incubated overnight (C. albicans, B. subtilis, E. coli, and P. aeruginosa 37° C.; and A. nidulans 30° C.) after which time the zones of growth inhibition could be read. These are expressed as the diameter of the zone in millimeters. […]

A549 cell line = test: A549 cell assay (analogous MTT procedure); format: cell-based; conditions: Homo sapiens, procedure analogous to P388
Experimental: (§1) To assess the antiproliferative effects of agents against P388 cells, 200 μl cultures (96-well tissue culture plates, Nunc, Denmark) were established at 1×10^5 cells/ml in drug-free medium containing agents at various concentrations. After 48 hour exposures, P388 cells were enumerated using 3-[4,5-dimethylthiazol-2-yl]-2,5-diphenyltetrazolium bromide (MTT) as described below.
(§2) To quantitate the effects of agents on cell proliferation, 75 μl warm growth medium containing 5 mg/ml MTT was added to each well. Cultures were returned to the incubator and left undisturbed for 90 minutes. To spectrophotometrically quantitate formation of reduced formazan, plates were centrifuges (900 g, 5 minutes), culture fluids were removed by aspiration, and 200 μl of acidified isopropanol (2 ml concentrated HCl/L isopropanol) added per well. The absorbance of the resulting solutions were measured at 570 nm with a plate reader (MR700 Microplate Reader, Dynatech Laboratories, Chantilly, Va.). […] A linear relationship between P388 cell number and formazan production was found over the range of cell densities observed in this study.
(§3) Analogous procedures were followed for the A549 and HT29 cell lines.

HT29 cell line = test: HT29 cell assay (analogous MTT procedure); format: cell-based; conditions: Homo sapiens, HT-29; procedure analogous to P388
Experimental: as §1, §2, §3

C. albicans = C. albicans MIC (microtiter broth dilution); format: cell-based, Candida albicans (ATCC strain 44506); conditions: Candida albicans, read-out: C. albicans MIC
Experimental: All media were autoclaved at 121° C. for 15 minutes. Candida albicans: C. albicans (ATCC strain 44506) was grown on Sabouraud dextrose agar to produce single colonies, one of which was used to inoculate Sabouraud dextrose broth. The broth was incubated at 37° C. with shaking at 200 rpm for 18 hours. The resultant culture was brought to 10% (v/v) glycerol, frozen at -80° C., and used as the inoculum for the anti-Candida assay. Aspergillus nidulans: A. nidulans (ATCC strain 36321) was grown from a spore stock on the surface of a YAG plate (YAG: yeast extract 0.5%; glucose 2%; agar 2%) at 30° C. until the colony sporulated; at this point the colony was green (usually within one week). Spores were harvested by washing with 0.1% (v/v) TRITON™ X-100. Spores were then washed with distilled water before freezing at -80° C. in the presence of 10% (v/v) glycerol. Bacillus subtilis: Standard spore stocks (ATCC strain 6633) were purchased from Difco (#0453-36-0). Escherichia coli: The BMR strain was used. This was grown overnight with shaking at 37° C. in nutrient broth and frozen in 1 mL aliquots in the presence of 10% (v/v) glycerol at -80° C. Pseudomonas aeruginosa: (ATCC strain 27853) Grown and stored as described for E. coli.
Two-fold dilutions of the drug/extract were prepared in 50 μL volumes of a suitable solvent using 96-well microtiter plates. A 25% mixture of MeOH in water was generally used; however, EtOH, 5% EtOAc in EtOH, DMSO, or other compatible solvents could be substituted if necessary. In a separate 96-well plate, 35 μL volumes of either Sabouraud dextrose broth or RPMI-1640 were placed in each well. The drug/extract (5 μL) was then transferred to the broth using a 12-place pipettor. An inoculum of C. albicans in the appropriate medium was added to give a cell density of 1000 cells/mL and a total volume of 50 μL. […] SDB plates were incubated at 37° C. overnight, RPMI-1640 plates were incubated at 37° C. in a humidified atmosphere of 10% CO2.

[1] = system: P388 murine leukemia cells; test: P388 mouse leukemia cell antiproliferative assay (MTT); format: cell-based; conditions: 48 hour exposure
Experimental: P388 murine leukemia cells obtained from Dr. J. Mayo, National Cancer Institute, Bethesda, Md., were maintained in Roswell Park Memorial Institute medium 1640 (RPMI-1640) supplemented with 10% horse serum and cultured in plastic tissue culture flasks and kept in an incubator at 37° C. in humidified air containing 5% CO2. Antibiotic-free stock cultures of P388 cells were subcultured to 10^5 cells/ml by dilutions in fresh growth medium at 2 to 5 day intervals.
as §1, §2

[2] = lowest concentration completely inhibiting growth

| IC50 (A549 cell line) [µg/mL] | IC50 (HT29 cell line) [µg/mL] | MIC (C. albicans; [2]) [µg/mL] | IC50 [1] [µg/mL] | Compound | inhibition of the growth of B. subtilis (B. subtilis) | MIC (C. albicans) [µg/mL] |
| --- | --- | --- | --- | --- | --- | --- |
| 0.07 (≈ 0.248 µM) | 0.44 (≈ 1.56 µM) | 3.1 (≈ 11 µM) | 0.42 (≈ 1.49 µM) | CSc1c2c3c(n1C)C(=O)C(N)=C(Cl)C3=NCC2 [Isobatzelline A] | inhibit the growth of B. subtilis | – |
| 2.8 (≈ 11.3 µM) | 2.5 (≈ 10.1 µM) | 25 (≈ 101 µM) | 2.6 (≈ 10.5 µM) | CSc1c2c3c(n1C)C(=O)C(N)=CC3=NCC2 [Isobatzelline B] | – | – |
| > 20 | > 20 | 25 (≈ 89.4 µM) | 20 (≈ 71.5 µM) | CSc1c2ccnc3c2c(n1C)C(=O)C(N)=C3Cl [Isobatzelline D] | – | – |

| Compound | IC50 (A549 cell line) [µg/mL] | IC50 (HT29 cell line) [µg/mL] | MIC (C. albicans; [2]) [µg/mL] | IC50 [1] [µg/mL] | inhibition of the growth of B. subtilis (B. subtilis) | MIC (C. albicans) [µg/mL] |
| --- | --- | --- | --- | --- | --- | --- |
| Cn1cc2c3c1C(=O)C(N)=C(Cl)C3=NCC2 [Isobatzelline C] | > 20 | 10 (≈ 42.4 µM) | – | 12.6 (≈ 53.5 µM) | – | 50 (≈ 212 µM) |
